Where two headings read alike, the source gives them in different places.

The target of the test is T1, PLA2 of type I originating from pig pancreas (Sus scrofa, UniProt P00592).
T1 construct: originates from pig pancreas (enzyme of type I); from tissue; host or cells: pig pancreas
Briefly: Acellular in vitro inhibition of PLA2 of type I, determination of free fatty acids. It is filed as biochemical. To be noted: for inhibition at 1000 µM: 1 mM; for Inhibition (%) Product diluted at 1/100 in demineralized water: initial solution diluted at 1/100 in demineralized water; for Inhibition by substance tested pure (%): percentage inhibition with respect to the control. The method, then:
The study of the inhibition of phospholipase A2 (PLA2) is carried out in an acellular in vitro model which aims to be a reflection, near as possible, of the situation encountered in vivo.
The PLA2s of type I and of type II are used in vitro, in a model comprising: • 1) a substrate selected from the ester derivatives of arachidonic acid (such as β-arachidonoyl γ-palmitoyl L-α-phosphatidylcholine, which is a phospholipid containing arachidonic acid in SN2 position, site hydrolyzed by the phospholipase A2) which specifically is the fatty add involved in the synthesis of the mediators of the inflammation, • 2) a bivalent ion, playing the role of catalyst (such as calcium), • 3) an activator, which is indispensable for the activity of the enzyme, playing the role of solubilizer of the substrate in the reaction medium and enabling promoting the enzyme-substrate interaction (preferably sodium deoxycholate).
The enzyme in the presence of its cofactor is incubated for a determined period of time (e.g. about 15 minutes) with the inhibitor, and then a second incubation is carried out for (e.g. about 20 minutes) in the presence of the substrate which is preferably β-arachidonoyl γ-palmitoyl L-α-phosphatidylcholine and of the activator, which is preferably sodium deoxycholate.
At the end of this incubation, a determination of the non-esterified fatty acids is made on the reaction medium by an enzymatic technique that it is for example possible to follow by colorimetry at a defined wavelength.
In parallel, a control corresponding to the activity of the phospholipase A2 in the absence of inhibitor is carried out.
The PLA2 in aqueous solution (35 Units/ml), is placed in the presence of 3 mM β-arachidonoyl γ-palmitoyl L-α-phosphatidylcholine, which is a phospholipid containing, in SN2 position, site hydrolyzed by the phospholipase A2, arachidonic add, which is specifically an important fatty acid involved in the synthesis of the mediators of inflammation,
a) the enzyme in the presence of the cofactor (calcium) is incubated for 15 minutes at ambient temperature (20° C.) with the inhibitor;
b) then, a second incubation of 20 minutes is made in the presence of β-arachidonoyl γ-palmitoyl L-α-phosphatidylcholine (3 mM) and sodium deoxycholate (1.6 mM).
At the end of this incubation, a determination of the free fatty acids, thus non-esterified free fatty acids, is made on the reaction medium by a classical enzymatic technique which is well-known to the person skilled in the art, that it is possible to follow by colorimetry, e.g. here at 550 nm,
The anti-PLA2 activity of increasing concentrations of the product selected was measured over three different batches of starting material. Each determination was made in triplicate, […]

The mark [1] stands for this setting: Table VII, read-out: percentage inhibition with respect to control.
The mark [2] stands for this setting: Table VII, 10 mM, read-out: percentage inhibition with respect to control.
The mark [3] stands for this setting: non-diluted, initial concentrations: aristolochic acid 2 mM, p-bromophenacyl bromide 10 mM, nordihydroguaiaretic acid 5 mM.

T1 sequence (P00592 23-146): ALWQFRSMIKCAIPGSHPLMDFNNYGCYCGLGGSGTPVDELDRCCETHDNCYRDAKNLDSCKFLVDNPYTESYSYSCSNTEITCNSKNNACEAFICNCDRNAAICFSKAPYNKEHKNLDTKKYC

As to `COc1ccc2c(c1)c(CC(=O)O)c(C)n2C(=O)c1ccc(Cl)cc1` [Indomethacin], the inhibition (as a rule, how much of the control response was suppressed) at 1000 µM under setting [1] stood at 0%. Further, the inhibition at 10000 µM under setting [2] amounted to 25.7%.

In the case of `CC(C)Cc1ccc(C(C)C(=O)O)cc1` (centres unmarked) [Ibuprofen], the inhibition at 1000 µM under setting [1] came to 6.9%. Moreover, the inhibition at 10000 µM under setting [2] came to 40.3%.

Turning to `C[C@]12C=CC(=O)C=C1CC[C@@H]1[C@@H]2[C@@H](O)C[C@@]2(C)[C@H]1CC[C@]2(O)C(=O)CO` [Prednisolone], the inhibition at 10000 µM under setting [2] came out at 6.3%.

For `CC(Cc1ccc(O)c(O)c1)C(C)Cc1ccc(O)c(O)c1` (centres unmarked) [nordihydroguaiaretic acid], the “Inhibition (%) Product diluted at 1/100 in demineralized water” value is given as 8.8% ± 0.8. The “Inhibition (%) Non-diluted product” value under setting [3] is 97.3% ± 13.2.

With `O=c1c(-c2ccc(O)cc2)coc2cc(O)cc(O)c12` [genistein], the “inhibition of the PLA2” value (commercial 1% genistein solution) came to 28.79%.

As for `O=C(CBr)c1ccc(Br)cc1` [p-bromophenacyl bromide], the “Inhibition (%) Product diluted at 1/100 in demineralized water” value is recorded as 4.5% ± 2.3. In addition, the inhibition at 10000 µM (non-diluted, initial concentrations: aristolochic acid 2 mM, p-bromophenacyl bromide 10 mM, nordihydroguaiaretic acid 5 mM, read-out: Inhibition (%) Non-diluted product) came out at 29.9%.

Take `O=C(O)Cc1ccccc1Nc1c(Cl)cccc1Cl` [Diclofenac]: the inhibition at 1000 µM under setting [1] amounted to 8%. The inhibition at 10000 µM under setting [2] came to 29.8%.

With `COc1cccc2c1cc([N+](=O)[O-])c1c(C(=O)O)cc3c(c12)OCO3` [Aristolochic acid, 8-methoxy-6-nitrophenanthro(3,4-d)-1,3-dioxole-5-carboxylic acid], the “Inhibition (%) Product diluted at 1/100 in demineralized water” value is reported as 10.00% ± 3.4. Moreover, the “Inhibition (%) Product diluted at 1/1000 in demineralized water” value (initial solution diluted at 1/1000 in demineralized water) was 0.25% ± 0.5. Moreover, under setting [3], the “Inhibition (%) Non-diluted product” value is listed as 96.2% ± 1.04.

Turning to Zinc gluconate, the “Inhibition by substance diluted at 1% in demineralized water (%)” value was found to be 12.6% and the “Inhibition by substance tested pure (%)” value was 50%.

In the case of `C[C@]12CCC(=O)C=C1CC[C@@H]1[C@@H]2[C@@H](O)C[C@@]2(C)[C@H]1CC[C@]2(O)C(=O)CO` [Hydrocortisone], the inhibition at 10000 µM under setting [2] was 4.5%.

Take `CC(=O)Oc1ccccc1C(=O)O` [Aspirin]: under setting [1], the inhibition at 1000 µM was found to be 3.5%. Besides, the inhibition at 10000 µM under setting [2] was 7%.

`C[C@]12CCC(=O)C=C1CC[C@@H]1[C@@H]2C(=O)C[C@@]2(C)[C@H]1CC[C@]2(O)C(=O)CO` [Cortisone]: the “percentage inhibition with respect to control” value (Table VII, 10 mM) came to 0%.

Consider Magnesium gluconate, for which the “Inhibition by substance diluted at 1% in demineralized water (%)” value was determined as 0% and the “Inhibition by substance tested pure (%)” value came out at 3.4%.

The values are drawn from US20150110907A1, “METHOD OF TESTING THE ACTIVITY OF A POTENTIALLY ACTIVE SUBSTANCE TO INHIBIT THE ENZYMATIC ACTIVITY OF PHOSPHOLIPASE A2” (BASF Beauty Care Solutions France S.A.S., priority 2002, published 2015).
